Test results from US9102899B2, “Organic compounds” (Givaudan SA, priority 2004, dated 2015).

Assays:
[1] = Odour threshold by gas chromatograph with sniff port, panel of trained individuals; conditions: GC sniff port; absolute amount of compound delivered at the sniff port; same panel, couples evaluated on the same day
Procedure: According to standard procedures known to the person skilled in the art, threshold values for volatile perfumery compounds were determined on a gas chromatograph equipped with a sniff port by a panel of trained individuals. The last concentration smelled by each individual was recorded as the individual threshold value expressed in ng (absolute amount of compound delivered at the sniff port). All compounds have been evaluated by the same panel. The couples (saturated and unsaturated compound) were evaluated on the same day.

| melting point [°C] | Compound | Odour threshold [1] [ng] |
| --- | --- | --- |
| 66 to 67 | CC(C)=C/C=C(/C#N)c1ccccc1 [Example 6, (2E)-5-Methyl-2-phenyl-hexa-2,4-diene nitrile] |  |
|  | CCC(C)C(C#N)c1ccccc1 (centres unmarked) [Comparison Example 3A, reference compound] | 26 |
|  | CCCCCCC(C#N)c1ccccc1 (centres unmarked) [Comparison Example 2A, reference compound] | 15 |
|  | CCC(C)=C(C#N)c1ccccc1 (racemic) [Example 3, 3-Methyl-2-phenyl-pent-2-ene nitrile] | 3 |
|  | CCCCCC=C(C#N)c1ccccc1 (stereo in doubt) [Example 2, (2E)-2-Phenyl-oct-2-ene nitrile] | 2 |
